Measurements published in article PMC3214022, “Plasmodium falciparum Parasites Are Killed by a Transition State Analogue of Purine Nucleoside Phosphorylase in a Primate Animal Model” (PLoS ONE, 2011).
Values joined by “and” are separate entries in the source; they are usually repeats but may differ in a detail not shown here. Identical values can stand only once.

Assay: Weights, CBC and blood chemistry, Table S1 sheet PD-1 (efficacy study in P. falciparum-infected Aotus)
Format: in vivo, Aotus lemurinus lemurinus
Settings: IV 10 mg/kg once a day/3 days
Description: Laboratory bred Aotus lemurinus lemurinus monkeys (0.75–0.89 kg) were maintained as described. […] Blood samples were collected before the treatment started (t = 0), 0.05 h, 0.5 h, 1 h, 2 h, 6 h, 24 h, 48 h, and 6, 12 and 18 days after the first dose from each monkey and processed as described below. Pharmacokinetic parameters were calculated using PKSolver. For efficacy studies, Aotus monkeys were inoculated intravenously with 5×10^6 parasites of the FVO strain of P. falciparum in an approved treatment protocol. […] Parasitaemia was determined by Giemsa-stained thick blood smears prepared daily from the marginal ear vein [41]. Blood samples were collected from each monkey and transferred to tubes containing lithium heparin, centrifuged and both plasma and blood cells were frozen at −80 °C until analysis. Animals received a physical examination and blood chemistry profiles were monitored after treatment as described previously. Any monkey not responding appropriately to treatment was cured of its infection with mefloquine (40 mg kg^−1). […] The day of clearance is defined as the first of three consecutive days in which the thick blood films are parasite negative. The day of recrudescence is the first of three consecutive days of positive thick blood films after a period of clearance. Suppression is defined as a transient decrease in the parasite count post-treatment without clearance.

Nc1nc2c(CN3CC(O)C(CO)C3)c[nH]c2c(=O)[nH]1 (centres unmarked) [BCX4945, 4′-deaza-1′-aza-2′-deoxy-1′-(9-methylene)-Immucillin-G]
Blood Urea Nitrogen (day 9, 10 mg/kg): 10.65 mg/dL and 14.3 mg/dL and 10.85 mg/dL and 10.75 mg/dL and 11.6 mg/dL and 17.75 mg/dL | Creatinine (day 9, 10 mg/kg): 0.59 mg/dL and 0.587 mg/dL and 0.522 mg/dL and 0.609 mg/dL and 0.7 mg/dL and 0.665 mg/dL | Erythrocytes (day 9, 10 mg/kg): 4.53e+06 µL⁻¹ and 4.52e+06 µL⁻¹ and 3.97e+06 µL⁻¹ and 3.87e+06 µL⁻¹ and 3.32e+06 µL⁻¹ and 5.16e+06 µL⁻¹ | Granulocytes (%) (day 9, 10 mg/kg): 19.7% and 21.4% and 19.2% and 30% and 21.1% and 36.1% | Hematocrit (day 9, 10 mg/kg): 36.1% and 34.4% and 30.6% and 31.6% and 28.1% and 40.4% | Hemoglobin (day 9, 10 mg/kg): 12 g/dL and 11.8 g/dL and 10.3 g/dL and 10.5 g/dL and 9.3 g/dL and 13.8 g/dL | Leucocytes (day 9, 10 mg/kg): 16700 µL⁻¹ and 22100 µL⁻¹ and 19500 µL⁻¹ and 11100 µL⁻¹ and 19200 µL⁻¹ and 19700 µL⁻¹ | Lymphocytes (%) (day 9, 10 mg/kg): 65.5% and 44.6% and 64.7% and 56.2% and 66.9% and 50.4% | Mean Corpuscular Hemoglobin (day 9, 10 mg/kg): 26.5 pg and 26.1 pg and 25.9 pg and 27.1 pg and 28.1 pg and 26.7 pg | Mean Corpuscular Volume (day 9, 10 mg/kg): 79.7 fL and 76.1 fL and 77.1 fL and 81.8 fL and 84.7 fL and 78.2 fL | Mean Hemoglobin Content (day 9, 10 mg/kg): 33.3 g/dL and 34.4 g/dL and 33.6 g/dL and 33.2 g/dL and 33.1 g/dL and 34.1 g/dL | Mean Platelet Volume (day 9, 10 mg/kg): 11.9 fL and 15.2 fL and 12.6 fL and 13.1 fL and 13.2 fL and 13.5 fL | Platelets (day 9, 10 mg/kg): 321000 µL⁻¹ and 270000 µL⁻¹ and 322000 µL⁻¹ and 237000 µL⁻¹ and 267000 µL⁻¹ and 336000 µL⁻¹ | Red Cell Distribution Width (day 9, 10 mg/kg): 12.8% and 11.8% and 11.5% and 13.6% and 12.1% | Reticulocytes (day 9, 10 mg/kg): 1.7% and 1.2% and 2.3% and 1.8% and 1.3% and 1.9% | WEIGHT (day 9, 10 mg/kg): 780 g and 698 g and 888 g and 790 g and 930 g and 685 g | Creatinine (day 12, 10 mg/kg): 0.555 mg/dL and 0.539 mg/dL and <0.500 mg/dL and 0.508 mg/dL and 0.604 mg/dL and 0.605 mg/dL | Erythrocytes (day 12, 10 mg/kg): 4.01e+06 µL⁻¹ and 4.03e+06 µL⁻¹ and 3.46e+06 µL⁻¹ and 5.43e+06 µL⁻¹ and 2.96e+06 µL⁻¹ and 4.66e+06 µL⁻¹ | Glutamate Pyruvate Transaminase (day 12, 10 mg/kg): 41.8 U/L and 40.8 U/L and 52.6 U/L and 38.7 U/L and 64.9 U/L and 39.6 U/L | Hematocrit (day 12, 10 mg/kg): 31.6% and 31.2% and 27.1% and 43.9% and 26.3% and 36.3% | Hemoglobin (day 12, 10 mg/kg): 10.9 g/dL and 10.7 g/dL and 9.2 g/dL and 14.9 g/dL and 8.6 g/dL and 12.7 g/dL | Leucocytes (day 12, 10 mg/kg): 36300 µL⁻¹ and 31000 µL⁻¹ and 41200 µL⁻¹ and 29300 µL⁻¹ and 42600 µL⁻¹ and 45600 µL⁻¹ | Lymphocytes (%) (day 12, 10 mg/kg): 72.6% and 57.1% and 73% and 56% and 73.9% and 60.8% | Lymphocytes (x 103/ul) (day 12, 10 mg/kg): 26.4 x 103/ul and 17.7 x 103/ul and 30.1 x 103/ul and 16.4 x 103/ul and 31.5 x 103/ul and 27.7 x 103/ul | Mean Corpuscular Hemoglobin (day 12, 10 mg/kg): 27.2 pg and 26.5 pg and 27.5 pg and 29 pg and 27.4 pg | Mean Corpuscular Volume (day 12, 10 mg/kg): 78.8 fL and 77.3 fL and 78.4 fL and 80.9 fL and 88.8 fL and 78 fL | Mean Hemoglobin Content (day 12, 10 mg/kg): 34.5 g/dL and 34.3 g/dL and 33.8 g/dL and 34.1 g/dL and 32.7 g/dL and 35.1 g/dL | Mean Platelet Volume (day 12, 10 mg/kg): 17.3 fL and 13.7 fL and 12.9 fL and 18.2 fL and 11.1 fL | Monocytes (x 103/ul) (day 12, 10 mg/kg): 3.5 x 103/ul and 4.3 x 103/ul and 6 x 103/ul and 4.1 x 103/ul | Red Cell Distribution Width (day 12, 10 mg/kg): 13.5% and 12.4% and 12.7% and 11.4% and 14.8% and 12.2% | Reticulocytes (day 12, 10 mg/kg): 1.7% and 2.1% and 2.5% and 2.6% and 1.3% | WEIGHT (day 12, 10 mg/kg): 766 g and 680 g and 832 g and 849 g and 684 g | Blood Urea Nitrogen (day 19, 10 mg/kg): 19.25 mg/dL and <10.0 mg/dL and 15.3 mg/dL and 13.8 mg/dL and 15.4 mg/dL and 13.5 mg/dL | Creatinine (day 19, 10 mg/kg): 0.514 mg/dL and <0.500 mg/dL and 0.504 mg/dL and 0.562 mg/dL and 0.507 mg/dL | Erythrocytes (day 19, 10 mg/kg): 4.88e+06 µL⁻¹ and 4.44e+06 µL⁻¹ and 4.27e+06 µL⁻¹ and 4e+06 µL⁻¹ and 4.12e+06 µL⁻¹ and 5.22e+06 µL⁻¹ | Glutamate Pyruvate Transaminase (day 19, 10 mg/kg): 29 U/L and 20.1 U/L and 31.3 U/L and 23.9 U/L and 26.3 U/L and 21.8 U/L | Hemoglobin (day 19, 10 mg/kg): 14.2 g/dL and 11.9 g/dL and 11.8 g/dL and 12.5 g/dL | Leucocytes (day 19, 10 mg/kg): 30100 µL⁻¹ and 23700 µL⁻¹ and 16700 µL⁻¹ and 22900 µL⁻¹ and 19600 µL⁻¹ and 17100 µL⁻¹ | Lymphocytes (%) (day 19, 10 mg/kg): 87.7% and 48.9% and 76.9% and 73.7% and 77.1% and 48.7% | Mean Corpuscular Hemoglobin (day 19, 10 mg/kg): 29 pg and 26.8 pg and 27.5 pg and 29.7 pg and 30.3 pg and 27.1 pg | Mean Corpuscular Volume (day 19, 10 mg/kg): 87.8 fL and 79.1 fL and 84.9 fL and 91.2 fL and 93.4 fL and 81.3 fL | Mean Hemoglobin Content (day 19, 10 mg/kg): 33.1 g/dL and 33.9 g/dL and 32.4 g/dL and 32.6 g/dL and 32.5 g/dL and 33.4 g/dL | Mean Platelet Volume (day 19, 10 mg/kg): 15.6 fL and 12.8 fL and 12.3 fL and 14.4 fL and 14.8 fL and 13.8 fL | Monocytes (%) (day 19, 10 mg/kg): 5.6% and 6.4% and 11.4% and 6.6% | Red Cell Distribution Width (day 19, 10 mg/kg): 23.9% and 15.2% and 21.7% and 23.4% and 22.5% and 17.2% | Reticulocytes (day 19, 10 mg/kg): 1.5% and 2% and 2.3% and 2.2% | WEIGHT (day 19, 10 mg/kg): 777 g and 684 g and 852 g and 754 g and 875 g and 690 g | Blood Urea Nitrogen (day 25, 10 mg/kg): 27.95 mg/dL and 24.85 mg/dL and 23.3 mg/dL and 19.35 mg/dL and 20.25 mg/dL | Creatinine (day 25, 10 mg/kg): <0.500 mg/dL and 0.563 mg/dL and 0.659 mg/dL and 0.585 mg/dL | Erythrocytes (day 25, 10 mg/kg): 4.42e+06 µL⁻¹ and 5.34e+06 µL⁻¹ and 5.57e+06 µL⁻¹ and 4.57e+06 µL⁻¹ and 4.75e+06 µL⁻¹ | Glutamate Pyruvate Transaminase (day 25, 10 mg/kg): 21.7 U/L and 23.8 U/L and 25 U/L and 26.2 U/L | Hematocrit (day 25, 10 mg/kg): 35.7% and 44.6% and 40.2% and 42.6% | Hemoglobin (day 25, 10 mg/kg): 12.1 g/dL and 15.2 g/dL and 15.3 g/dL and 13.4 g/dL and 14.4 g/dL | Leucocytes (day 25, 10 mg/kg): 11500 µL⁻¹ and 12400 µL⁻¹ and 15400 µL⁻¹ and 12700 µL⁻¹ and 10500 µL⁻¹ | Lymphocytes (%) (day 25, 10 mg/kg): 72.6% and 81.9% and 63.9% and 71.1% and 64.3% | Lymphocytes (x 103/ul) (day 25, 10 mg/kg): 8.3 x 103/ul and 10.2 x 103/ul and 9.8 x 103/ul and 9 x 103/ul and 6.8 x 103/ul | Mean Corpuscular Hemoglobin (day 25, 10 mg/kg): 27.3 pg and 28.5 pg and 27.5 pg and 29.3 pg and 30.2 pg | Mean Corpuscular Volume (day 25, 10 mg/kg): 80.8 fL and 83.6 fL and 80.1 fL and 88.1 fL and 89.5 fL | Mean Hemoglobin Content (day 25, 10 mg/kg): 33.8 g/dL and 34.1 g/dL and 34.3 g/dL and 33.2 g/dL and 33.7 g/dL | Mean Platelet Volume (day 25, 10 mg/kg): 12 fL and 13 fL and 11 fL | Monocytes (%) (day 25, 10 mg/kg): 11.3% and 6.2% and 5.7% and 7.9% and 8.2% | Monocytes (x 103/ul) (day 25, 10 mg/kg): 1.3 x 103/ul and 0.8 x 103/ul and 0.9 x 103/ul and 1 x 103/ul | Platelets (day 25, 10 mg/kg): 342000 µL⁻¹ and 291000 µL⁻¹ and 454000 µL⁻¹ and 397000 µL⁻¹ and 336000 µL⁻¹ | Red Cell Distribution Width (day 25, 10 mg/kg): 16.7% and 18.3% and 15.7% and 19.1% and 17.5% | Reticulocytes (day 25, 10 mg/kg): 2.1% and 1.8% and 1.7% and 2.6% and 2.4% | WEIGHT (day 25, 10 mg/kg): 825 g and 760 g and 690 g and 687 g | Blood Urea Nitrogen (day 26): 16.65 mg/dL | Creatinine (day 26): 0.537 mg/dL | Erythrocytes (day 26): 4.54e+06 µL⁻¹ | Glutamate Pyruvate Transaminase (day 26): 18.2 U/L | Granulocytes (%) (day 26): 46.7% | Granulocytes (x 103/ul) (day 26): 7.7 x 103/ul | Hematocrit (day 26): 35.9% | Hemoglobin (day 26): 12 g/dL | Leucocytes (day 26): 16500 µL⁻¹ | Lymphocytes (%) (day 26): 45.8% | Lymphocytes (x 103/ul) (day 26): 7.6 x 103/ul | Mean Corpuscular Hemoglobin (day 26): 26.3 pg | Mean Corpuscular Volume (day 26): 78.9 fL | Mean Hemoglobin Content (day 26): 33.4 g/dL | Mean Platelet Volume (day 26): 12.5 fL | Monocytes (%) (day 26): 7.5% | Monocytes (x 103/ul) (day 26): 1.2 x 103/ul | Platelets (day 26): 314000 µL⁻¹ | Red Cell Distribution Width (day 26): 16.2% | Reticulocytes (day 26): 1.9% | WEIGHT (day 26): 910 g | Creatinine (day -2, 10 mg/kg): 0.623 mg/dL and 0.539 mg/dL and 0.583 mg/dL and 0.677 mg/dL and 0.579 mg/dL and 0.564 mg/dL | Erythrocytes (day -2, 10 mg/kg): 6.51e+06 µL⁻¹ and 6.11e+06 µL⁻¹ and 6.26e+06 µL⁻¹ and 5.03e+06 µL⁻¹ and 5.52e+06 µL⁻¹ and 5.2e+06 µL⁻¹ | Hematocrit (day -2, 10 mg/kg): 50% and 47.6% and 40.6% and 44.3% and 42.4% | Hemoglobin (day -2, 10 mg/kg): 17.2 g/dL and 16.6 g/dL and 16.4 g/dL and 14.2 g/dL and 15.2 g/dL | Leucocytes (day -2, 10 mg/kg): 18500 µL⁻¹ and 15700 µL⁻¹ and 15900 µL⁻¹ and 16400 µL⁻¹ and 10600 µL⁻¹ and 21000 µL⁻¹ | Mean Corpuscular Hemoglobin (day -2, 10 mg/kg): 26.4 pg and 27.2 pg and 26.3 pg and 28.2 pg and 27.5 pg and 33.1 pg | Mean Corpuscular Volume (day -2, 10 mg/kg): 76.8 fL and 78 fL and 76.1 fL and 80.7 fL and 80.2 fL and 81.5 fL | Mean Hemoglobin Content (day -2, 10 mg/kg): 34.4 g/dL and 34.9 g/dL and 34.5 g/dL and 34.3 g/dL and 40.6 g/dL
